Reference: patent publication US20210214375A1 (LUNDBECK LA JOLLA RESEARCH CENTER, INC., priority 2017, published 2021)
Read-outs that look alike come from different tables or passages of the source.

Molecular target: T1, MAGL (Homo sapiens, UniProt Q99685)
T1 construct: Proteomes (human prefrontal cortex or cell membrane fractions); from tissue
T1 sequence (Q99685 1-303): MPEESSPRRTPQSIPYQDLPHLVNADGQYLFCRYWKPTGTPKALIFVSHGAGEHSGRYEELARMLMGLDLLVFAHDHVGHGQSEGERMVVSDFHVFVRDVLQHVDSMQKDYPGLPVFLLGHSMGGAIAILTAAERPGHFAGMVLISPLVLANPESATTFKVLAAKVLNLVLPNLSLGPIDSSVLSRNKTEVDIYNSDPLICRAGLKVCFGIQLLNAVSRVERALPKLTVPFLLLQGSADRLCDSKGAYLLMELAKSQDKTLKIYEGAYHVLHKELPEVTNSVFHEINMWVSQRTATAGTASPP
Experiment: In vitro competitive activity-based protein profiling (gel-based, FP-Rh or HT-01 probe)
Type: biochemical
Description: Compounds are tested to assess their MAGL and serine hydrolase activity using the following in vitro and in vivo assays.
Proteomes (human prefrontal cortex or cell membrane fractions) (50 μL, 1.0 mg/mL total protein concentration) were preincubated with varying concentrations of inhibitors at 37° C. After 30 min, FP—Rh or HT-01 (1.0 μL, 50 μM in DMSO) was added and the mixture was incubated for another 30 min at room temperature. Reactions were quenched with SDS loading buffer (15 μL-4×) and run on SDS-PAGE.

[1] = PC3 proteome, read-out: IC50 MGLL PC3 (Human)
[2] = PFC (prefrontal cortex) proteome
[3] = PFC (prefrontal cortex) proteome, read-out: IC50 MGLL PFC (Human)

Compound: O=C(O)CN1CCN(c2cc(CN3CCCC34CCN(C(=O)OC(C(F)(F)F)C(F)(F)F)CC4)cc(C(F)(F)F)c2)CC1 [Example 2, 2-(4-(3-((8-(((1,1,1,3,3,3-Hexafluoropropan-2-yl)oxy)carbonyl)-1,8-diazaspiro[4.5]decan-1-yl)methyl)-5-(trifluoromethyl)phenyl)piperazin-1-yl)acetic acid]
- IC50 [1]: < 100 nM
- % Inh MGLL PFC (Human, μM) [2]: ### (### is ≥ 75%)
- IC50 [3]: < 100 nM

Compound: O=C(O)C1CCN(Cc2cc(Cl)cc(C(=O)N3CCCC34CCN(C(=O)OC(C(F)(F)F)C(F)(F)F)CC4)c2)CC1 [Example 11, 1-(3-Chloro-5-(8-(((1,1,1,3,3,3-hexafluoropropan-2-yl)oxy)carbonyl)-1,8-diazaspiro[4.5]decane-1-carbonyl)benzyl)piperidine-4-carboxylic acid]
- IC50 [1]: < 100 nM
- % Inh MGLL PFC (Human, μM) [2]: ### (### is ≥ 75%)

Compound: N#Cc1ccc(C(=O)N2CCC3(CCN(C(=O)OC(C(F)(F)F)C(F)(F)F)CC3)C2)cc1C(F)(F)F [Example 12, 1,1,1,3,3,3-Hexafluoropropan-2-yl 2-(4-cyano-3-(trifluoromethyl)benzoyl)-2,8-diazaspiro[4.5]decane-8-carboxylate]
- IC50 [1]: < 100 nM

Compound: O=C(O)c1cc(CN2CC3(CCN(C(=O)OC(C(F)(F)F)C(F)(F)F)CC3)C2)ccc1C(F)(F)F [Example 21, 5-((7-(((1,1,1,3,3,3-Hexafluoropropan-2-yl)oxy)carbonyl)-2,7-diazaspiro[3.5]nonan-2-yl)methyl)-2-(trifluoromethyl)benzoic acid]
- IC50 [1]: < 100 nM

Compound: CC1(C(=O)O)CN(c2cc(CN3CC4(CCN(C(=O)OC(C(F)(F)F)C(F)(F)F)CC4)C3)cc(C(F)(F)F)c2)CCO1 (stereo not shown) [Example 22, 4-(3-((7-(((1,1,1,3,3,3-Hexafluoropropan-2-yl)oxy)carbonyl)-2,7-diazaspiro[3.5]nonan-2-yl)methyl)-5-(trifluoromethyl)phenyl)-2-methylmorpholine-2-carboxylic acid]
- IC50 [1]: < 100 nM

Compound: CN(Cc1ccc(C(F)(F)F)cc1-c1nnn[nH]1)C1(C)CCN(C(=O)OC(C(F)(F)F)C(F)(F)F)CC1 [Example 24, 1,1,1,3,3,3-Hexafluoropropan-2-yl 4-((2-(1H-tetrazol-5-yl)-4-(trifluoromethyl)benzyl)(methyl)amino)-4-methylpiperidine-1-carboxylate]
- IC50 [1]: < 100 nM

Compound: CC1(OCc2cc(CN3CCC(C(=O)O)CC3)cc(C(F)(F)F)c2)CCN(C(=O)OC(C(F)(F)F)C(F)(F)F)CC1 [Example 25, 1-(3-(((1-(((1,1,1,3,3,3-Hexafluoropropan-2-yl)oxy)carbonyl)-4-methylpiperidin-4-yl)oxy)methyl)-5-(trifluoromethyl)benzyl)piperidine-4-carboxylic acid]
- IC50 [1]: < 100 nM
- % Inh MGLL PFC (Human, μM) [2]: ### (### is ≥ 75%)

Compound: CN(Cc1ccc(C(F)(F)F)cc1N1CCN(CC(=O)O)CC1)C1(C)CCN(C(=O)OC(C(F)(F)F)C(F)(F)F)CC1 [Example 26, 2-(4-(2-(((1-(((1,1,1,3,3,3-Hexafluoropropan-2-yl)oxy)carbonyl)-4-methylpiperidin-4-yl)(methyl)amino)methyl)-5-(trifluoromethyl)phenyl)piperazin-1-yl)acetic acid]
- IC50 [1]: < 100 nM
- % Inh MGLL PFC (Human, μM) [2]: ### (### is ≥ 75%)
- IC50 [3]: < 100 nM

Compound: CN(Cc1ccc(C(F)(F)F)cc1N1CC2CC1CN2CC(=O)O)C1(C)CCN(C(=O)OC(C(F)(F)F)C(F)(F)F)CC1 (stereo not shown) [Example 27, 2-(5-(2-(((1-(((1,1,1,3,3,3-Hexafluoropropan-2-yl)oxy)carbonyl)-4-methylpiperidin-4-yl)(methyl)amino)methyl)-5-(trifluoromethyl)phenyl)-2,5-diazabicyclo[2.2.1]heptan-2-yl)acetic acid]
- IC50 [1]: < 100 nM
- IC50 [3]: < 100 nM

Compound: O=C(O)C1CN(c2cc(CN3CC4(CCN(C(=O)OC(C(F)(F)F)C(F)(F)F)CC4)C3)cc(C(F)(F)F)c2)CCO1 (stereo not shown) [Example 100, 4-(3-((7-(((1,1,1,3,3,3-Hexafluoropropan-2-yl)oxy)carbonyl)-2,7-diazaspiro[3.5]nonan-2-yl)methyl)-5-(trifluoromethyl)phenyl)morpholine-2-carboxylic acid]
- IC50 [1]: < 100 nM

Compound: O=C(O)C1CCN(c2cc(C(F)(F)F)ccc2CN2CC3(CCN(C(=O)OC(C(F)(F)F)C(F)(F)F)CC3)C2)C1 (stereo not shown) [Example 101, 1-(2-((7-(((1,1,1,3,3,3-Hexafluoropropan-2-yl)oxy)carbonyl)-2,7-diazaspiro[3.5]nonan-2-yl)methyl)-5-(trifluoromethyl)phenyl)pyrrolidine-3-carboxylic acid]
- IC50 [1]: < 100 nM

Compound: O=C(O)C1CCN(c2cc(C(F)(F)F)ccc2CN2CC3(CCN(C(=O)OC(C(F)(F)F)C(F)(F)F)CC3)C2)CC1 [Example 102, 1-(2-((7-(((1,1,1,3,3,3-Hexafluoropropan-2-yl)oxy)carbonyl)-2,7-diazaspiro[3.5]nonan-2-yl)methyl)-5-(trifluoromethyl)phenyl)piperidine-4-carboxylic acid]
- IC50 [1]: < 100 nM

Compound: O=C(O)C1COCCN1c1cc(CN2CC3(CCN(C(=O)OC(C(F)(F)F)C(F)(F)F)CC3)C2)cc(C(F)(F)F)c1 (stereo not shown) [Example 103, 4-(3-((7-(((1,1,1,3,3,3-Hexafluoropropan-2-yl)oxy)carbonyl)-2,7-diazaspiro[3.5]nonan-2-yl)methyl)-5-(trifluoromethyl)phenyl)morpholine-3-carboxylic acid]
- IC50 [1]: < 100 nM

Compound: O=C(O)[C@@H]1CCCN(c2cc(C(F)(F)F)ccc2CN2CC3(CCN(C(=O)OC(C(F)(F)F)C(F)(F)F)CC3)C2)C1 [Example 107, (R)-1-(2-((7-(((1,1,1,3,3,3-Hexafluoropropan-2-yl)oxy)carbonyl)-2,7-diazaspiro[3.5]nonan-2-yl)methyl)-5-(trifluoromethyl)phenyl)piperidine-3-carboxylic acid]
- IC50 [1]: < 100 nM

Compound: O=C(OC(C(F)(F)F)C(F)(F)F)N1CCC2(CC1)CCN(C(=O)c1ccc(C(F)(F)F)c(Cl)c1)C2 [Example 109, 1,1,1,3,3,3-Hexafluoropropan-2-yl 2-(3-chloro-4-(trifluoromethyl)benzoyl)-2,8-diazaspiro[4.5]decane-8-carboxylate]
- IC50 [1]: < 100 nM

Compound: O=C(OC(C(F)(F)F)C(F)(F)F)N1CCC2(CC1)CCN(C(=O)c1cc(Cl)cc(C(F)(F)F)c1)C2 [Example 110, 1,1,1,3,3,3-Hexafluoropropan-2-yl 2-(3-chloro-5-(trifluoromethyl)benzoyl)-2,8-diazaspiro[4.5]decane-8-carboxylate]
- IC50 [1]: < 100 nM

Compound: O=C(O)[C@H]1CCCN(c2cc(C(F)(F)F)ccc2CN2CC3(CCN(C(=O)OC(C(F)(F)F)C(F)(F)F)CC3)C2)C1 [Example 111, (S)-1-(2-((7-(((1,1,1,3,3,3-hexafluoropropan-2-yl)oxy)carbonyl)-2,7-diazaspiro[3.5]nonan-2-yl)methyl)-5-(trifluoromethyl)phenyl)piperidine-3-carboxylic acid]
- IC50 [1]: < 100 nM

Compound: CC1(C(=O)O)CCN(c2cc(C(F)(F)F)ccc2CN2CC3(CCN(C(=O)OC(C(F)(F)F)C(F)(F)F)CC3)C2)C1 (stereo not shown) [Example 115, 1-(2-((7-(((1,1,1,3,3,3-Hexafluoropropan-2-yl)oxy)carbonyl)-2,7-diazaspiro[3.5]nonan-2-yl)methyl)-5-(trifluoromethyl)phenyl)-3-methylpyrrolidine-3-carboxylic acid]
- IC50 [1]: < 100 nM

Compound: O=C(OC(C(F)(F)F)C(F)(F)F)N1CCC2(CC1)CCN(C(=O)c1ccc(C(F)(F)F)cc1Cl)C2 [Example 119, 1,1,1,3,3,3-Hexafluoropropan-2-yl 2-(2-chloro-4-(trifluoromethyl)benzoyl)-2,8-diazaspiro[4.5]decane-8-carboxylate]
- IC50 [1]: < 100 nM

Compound: O=C(O)C1CCCCN1c1cc(CN2CC3(CCN(C(=O)OC(C(F)(F)F)C(F)(F)F)CC3)C2)cc(C(F)(F)F)c1 (stereo not shown) [Example 120, 1-(3-((7-(((1,1,1,3,3,3-Hexafluoropropan-2-yl)oxy)carbonyl)-2,7-diazaspiro[3.5]nonan-2-yl)methyl)-5-(trifluoromethyl)phenyl)piperidine-2-carboxylic acid]
- IC50 [1]: < 100 nM

Compound: CC1(C(=O)O)CCN(c2cc(CN3CC4(CCN(C(=O)OC(C(F)(F)F)C(F)(F)F)CC4)C3)cc(C(F)(F)F)c2)C1 (stereo not shown) [Example 121, 1-(3-((7-(((1,1,1,3,3,3-Hexafluoropropan-2-yl)oxy)carbonyl)-2,7-diazaspiro[3.5]nonan-2-yl)methyl)-5-(trifluoromethyl)phenyl)-3-methylpyrrolidine-3-carboxylic acid]
- IC50 [1]: < 100 nM

Compound: O=C(O)C1CCN(c2cc(Cl)ccc2CN2CC3(CCN(C(=O)OC(C(F)(F)F)C(F)(F)F)CC3)C2)CC1 [Example 122, 1-(5-Chloro-2-((7-(((1,1,1,3,3,3-hexafluoropropan-2-yl)oxy)carbonyl)-2,7-diazaspiro[3.5]nonan-2-yl)methyl)phenyl) piperidine-4-carboxylic acid]
- IC50 [1]: < 100 nM

Compound: O=C(O)C1CCN(c2cc(F)ccc2CN2CC3(CCN(C(=O)OC(C(F)(F)F)C(F)(F)F)CC3)C2)CC1 [Example 123, 1-(5-Fluoro-2-((7-(((1,1,1,3,3,3-hexafluoropropan-2-yl)oxy)carbonyl)-2,7-diazaspiro[3.5]nonan-2-yl)methyl)phenyl) piperidine-4-carboxylic acid]
- IC50 [1]: 100 to 1000 nM

Compound: O=C(O)c1ccc(CN2CC3(CCN(C(=O)OC(C(F)(F)F)C(F)(F)F)CC3)C2)cc1C(F)(F)F [Example 131, 4-((7-(((1,1,1,3,3,3-Hexafluoropropan-2-yl)oxy)carbonyl)-2,7-diazaspiro[3.5]nonan-2-yl)methyl)-2-(trifluoromethyl) benzoic acid]
- IC50 [1]: 100 to 1000 nM
